From PubChem BioAssay AID248 (DTP/NCI, 2004)
Several values for one entry are separate records, joined by “and”; a condition that tells them apart may be missing. Equal entries are not always repeated. Inconclusive results and toxic doses are left out. Rule as the data show it: active = T/C of 150% or more; inactive = T/C below 125%.

Test system: L1210 leukemia ip in BDF1 mice, survival T/C
Assay: NCI In Vivo Anticancer Drug Screen. Data for tumor model L1210 Leukemia (intraperitoneal) in B6D2F1 (BDF1) mice
Conditions: endpoint: mean survival time, higher = longer survival
Procedure, shortened: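 Mice bearing the transplanted tumor received compound or vehicle. Survival of the treated group was divided by that of the vehicle-treated control group to give the ratio.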

[1] = dose: 100.0 mg/kg/injection, schedule: Q01DX001 (ip), vehicle: Klucel (hydroxypropylcellulose) (HPC)
[2] = dose: 200.0 mg/kg/injection, schedule: Q01DX001 (ip), vehicle: Klucel (hydroxypropylcellulose) (HPC)
[3] = dose: 100.0 mg/kg/injection, schedule: Q04DX003 (ip), vehicle: Klucel (hydroxypropylcellulose) (HPC)
[4] = dose: 200.0 mg/kg/injection, schedule: Q04DX003 (ip), vehicle: Klucel (hydroxypropylcellulose) (HPC)
[5] = dose: 400.0 mg/kg/injection, schedule: Q04DX003 (ip), vehicle: Klucel (hydroxypropylcellulose) (HPC)
[6] = dose: 50.0 mg/kg/injection, schedule: Q01DX009 (ip), vehicle: Klucel (hydroxypropylcellulose) (HPC)
[7] = dose: 100.0 mg/kg/injection, schedule: Q01DX009 (ip), vehicle: Klucel (hydroxypropylcellulose) (HPC)
[8] = dose: 200.0 mg/kg/injection, schedule: Q01DX009 (ip), vehicle: Klucel (hydroxypropylcellulose) (HPC)
[9] = dose: 100.0 mg/kg/injection, schedule: Q04DX002 (ip), vehicle: Klucel (hydroxypropylcellulose) (HPC)
[10] = dose: 200.0 mg/kg/injection, schedule: Q04DX002 (ip), vehicle: Klucel (hydroxypropylcellulose) (HPC)
[11] = dose: 400.0 mg/kg/injection, schedule: Q01DX001 (ip), vehicle: Klucel (hydroxypropylcellulose) (HPC)
[12] = dose: 100.0 mg/kg/injection, schedule: Q01DX009 (ip), vehicle: saline with Tween-80
[13] = dose: 100.0 mg/kg/injection, schedule: Q04DX003 (ip), vehicle: saline with Tween-80
[14] = dose: 200.0 mg/kg/injection, schedule: Q01DX009 (ip), vehicle: saline with Tween-80
[15] = dose: 200.0 mg/kg/injection, schedule: Q04DX003 (ip), vehicle: saline with Tween-80
[16] = dose: 400.0 mg/kg/injection, schedule: Q01DX009 (ip), vehicle: saline with Tween-80
[17] = dose: 400.0 mg/kg/injection, schedule: Q04DX003 (ip), vehicle: saline with Tween-80
[18] = dose: 100.0 mg/kg/injection, schedule: Q04DX003 (ip), vehicle: saline
[19] = dose: 6.25 mg/kg/injection, schedule: Q01DX009 (ip), vehicle: saline
[20] = dose: 12.5 mg/kg/injection, schedule: Q01DX009 (ip), vehicle: saline

Measured: T/C

c1ccc(-c2nnc3ccccn23)cc1
inactive: [1] 102 % of control | [2] 106 % of control

CCOC(=O)Cn1c(=O)c2ccccc2c2ccccc21
inactive: [3] 97 % of control | [4] 104 % of control | [5] 101 % of control

C=CC(C(=O)OCC)C(O)CCC (stereo not given)
inactive: [6] 104 % of control | [7] 95 % of control | [3] 95 % of control | [8] 101 % of control and 108 % of control | [4] 94 % of control | dose: 400.0 mg/kg/injection, schedule: Q01DX009 (ip), vehicle: Klucel (hydroxypropylcellulose) (HPC) 100 % of control | [5] 101 % of control

O=C(N1CCCCC1)C(Cl)(Cl)Cl
inactive: [6] 98 % of control | [7] 88 % of control | [9] 92 % of control | [10] 110 % of control

CCCCOC(=O)c1ccc(OC(=O)Nc2cccc(Cl)c2)cc1
inactive: [1] 94 % of control | [2] 92 % of control | [8] 102 % of control | [11] 90 % of control

Cc1cccc2c(C)c3cccc[n+]3cc12
inactive: dose: 2.0 mg/kg/injection, schedule: Q01DX Z (ip), vehicle: carboxymethylcellulose (CMC) 113 % of control | dose: 4.0 mg/kg/injection, schedule: Q01DX Z (ip), vehicle: carboxymethylcellulose (CMC) 110 % of control | dose: 8.0 mg/kg/injection, schedule: Q01DX Z (ip), vehicle: carboxymethylcellulose (CMC) 113 % of control and 123 % of control | dose: 16.0 mg/kg/injection, schedule: Q01DX Z (ip), vehicle: carboxymethylcellulose (CMC) 115 % of control and 119 % of control

CCN(C(=O)COc1ccc(Cl)cc1Cl)c1ccccc1C
inactive: [12] 106 % of control | [13] 105 % of control | [14] 107 % of control | [15] 102 % of control | [16] 98 % of control | [17] 93 % of control

NC(=O)c1ccc[n+](CC(=O)NCc2ccc(Cl)cc2)c1
inactive: [18] 93 % of control

CC(=O)C1CC[C@@]2(C)C(CC[C@H]3[C@@H]4CCC[C@H]([C@H](C)O)[C@@]4(C)CC[C@@H]32)C1 (stereo not given in full)
inactive: dose: 100.0 mg/kg/injection, schedule: Q04DX003 (ip), vehicle: steriod suspending solution 106 % of control | dose: 200.0 mg/kg/injection, schedule: Q04DX003 (ip), vehicle: steriod suspending solution 95 % of control | dose: 400.0 mg/kg/injection, schedule: Q04DX003 (ip), vehicle: steriod suspending solution 119 % of control

CC(=O)NCC(O)C(O)C(O)C(O)CO (stereo not given)
inactive: dose: 100.0 mg/kg/injection, schedule: Q04DX002 (ip), vehicle: saline 98 % of control | dose: 200.0 mg/kg/injection, schedule: Q04DX002 (ip), vehicle: saline 92 % of control | dose: 400.0 mg/kg/injection, schedule: Q04DX002 (ip), vehicle: saline 103 % of control

N#CNC(=S)S
inactive: [18] 105 % of control | dose: 200.0 mg/kg/injection, schedule: Q04DX003 (ip), vehicle: saline 93 % of control | dose: 400.0 mg/kg/injection, schedule: Q04DX003 (ip), vehicle: saline 104 % of control

C=C(C)C(=O)Oc1ccccc1-c1ccccc1
inactive: [9] 100 % of control | [10] 96 % of control | dose: 400.0 mg/kg/injection, schedule: Q04DX002 (ip), vehicle: Klucel (hydroxypropylcellulose) (HPC) 92 % of control

c1cc[n+](CCNCC[n+]2ccccc2)cc1
inactive: dose: 75.0 mg/kg/injection, schedule: Q01DX001 (ip), vehicle: saline 93 % of control | dose: 150.0 mg/kg/injection, schedule: Q01DX001 (ip), vehicle: saline 94 % of control

Nc1ccc2ccccc2c1N=Nc1ccc(C(O)C(N)CO)cc1 (stereo not given)
inactive: [19] 117 % of control | [20] 98 % of control | dose: 25.0 mg/kg/injection, schedule: Q01DX009 (ip), vehicle: saline 96 % of control

CN(C)S(=O)(=O)c1ccc(NC(=O)C(Cl)Cl)cc1
inactive: dose: 100.0 mg/kg/injection, schedule: Q01DX001 (ip), vehicle: other 100 % of control | [12] 100 % of control | dose: 100.0 mg/kg/injection, schedule: Q04DX003 (ip), vehicle: other 103 % of control | dose: 200.0 mg/kg/injection, schedule: Q01DX001 (ip), vehicle: other 107 % of control | [14] 100 % of control | dose: 200.0 mg/kg/injection, schedule: Q04DX003 (ip), vehicle: other 101 % of control | dose: 400.0 mg/kg/injection, schedule: Q01DX001 (ip), vehicle: other 100 % of control | [16] 86 % of control | dose: 400.0 mg/kg/injection, schedule: Q04DX003 (ip), vehicle: other 101 % of control

O=S1(=O)Oc2c(Cl)cc(Cl)cc2S(=O)(=O)Oc2c(Cl)cc(Cl)cc21
inactive: [1] 105 % of control | [2] 105 % of control | [11] 98 % of control

CCn1c(N)c(N)c(=O)[nH]c1=S
inactive: [13] 86 % of control | [15] 93 % of control | [17] 86 % of control

O=c1[nH]c(=S)[nH]c(=S)[nH]1
inactive: dose: 100.0 mg/kg/injection, schedule: Q01DX Z (ip), vehicle: methylcellulose (MC) 97 % of control | dose: 200.0 mg/kg/injection, schedule: Q01DX Z (ip), vehicle: methylcellulose (MC) 104 % of control

CC(C)CNC(=O)CCc1ccc(N(CCCl)CCCl)cc1
inactive: [6] 109 % of control | [7] 117 % of control | [3] 120 % of control | [4] 102 % of control | [5] 112 % of control

NCC(O)COc1ccccc1N (stereo not given)
inactive: dose: 3.12 mg/kg/injection, schedule: Q01DX009 (ip), vehicle: saline 97 % of control | [19] 106 % of control | [20] 100 % of control | dose: 12.5 mg/kg/injection, schedule: Q04DX003 (ip), vehicle: saline 93 % of control

CCCCCCCCCCCCCCCCCCNC(=O)Cc1ccc(N(CCCl)CCCl)cc1
inactive: [7] 94 % of control | [8] 95 % of control

Cc1ccc2cccnc2c1N (tested in a mixture with another compound)
inactive: dose: 1.56 mg/kg/injection, schedule: Q01DX009 (ip), vehicle: DMSO 101 % of control | dose: 3.12 mg/kg/injection, schedule: Q01DX009 (ip), vehicle: DMSO 97 % of control | dose: 6.25 mg/kg/injection, schedule: Q01DX009 (ip), vehicle: DMSO 95 % of control and 97 % of control | dose: 12.5 mg/kg/injection, schedule: Q01DX009 (ip), vehicle: DMSO 100 % of control | dose: 25.0 mg/kg/injection, schedule: Q01DX009 (ip), vehicle: DMSO 94 % of control and 88 % of control | dose: 25.0 mg/kg/injection, schedule: Q04DX003 (ip), vehicle: DMSO 107 % of control | dose: 50.0 mg/kg/injection, schedule: Q04DX003 (ip), vehicle: DMSO 86 % of control | dose: 100.0 mg/kg/injection, schedule: Q04DX003 (ip), vehicle: DMSO 98 % of control

Cc1cc(C)c(C2=C(CC(=O)O)C(=O)c3ccccc3C2=O)c(C)c1
inactive: dose: 100.0 mg/kg/injection, schedule: Q04DX003 (ip), vehicle: gum acacia 92 % of control | dose: 200.0 mg/kg/injection, schedule: Q04DX003 (ip), vehicle: gum acacia 90 % of control | dose: 400.0 mg/kg/injection, schedule: Q04DX003 (ip), vehicle: gum acacia 90 % of control

O=C(O)c1cccc2c1ccc1ccccc12
inactive: dose: 75.0 mg/kg/injection, schedule: Q04DX003 (ip), vehicle: saline 104 % of control | dose: 150.0 mg/kg/injection, schedule: Q04DX003 (ip), vehicle: saline 102 % of control | dose: 300.0 mg/kg/injection, schedule: Q04DX003 (ip), vehicle: saline 100 % of control
